Legend:
Format in all cases: cell-based, human
[1] = system: EBNA1-specific CTL clone C6; assay: IFNγ ELISPOT assay, CTL clone C6 with peptide-pulsed autologous CD40-B cells; details: autologous CD40-B cells pulsed with 10 μg/mL peptide; FIG. 9
Method: (§1) ELISPOT assays were performed by a known method (Kuzushima K., et al., Blood, 101:1460-1468 (2003)). Specifically, CD8 T cells were co-cultured with various stimulators in wells of Multiscreen-HA plates (Millipore, Billerica, Mass.) coated with anti-human interferon-γ (IFNγ) monoclonal antibody (Pierce Biotechnology, Philadelphia, Pa.). As stimulators, (A) autologous EBNA1 mRNA-transduced CD40-B cells or non-transduced CD40-B cells and (B) autologous or allogenic LCLs (1×10^5 cells/well) were seeded into each well. For peptide titration assays and the overlapping peptide assay described below, serial concentrations of synthetic peptides were added to autologous CD40-B cells for one hour at room temperature.
(§2) After reacting with anti-human IFNγ rabbit polyclonal antibody (Pierce Biotechnology), followed by addition of peroxidase-labeled anti-rabbit immunoglobulin antibody (Genzyme, Cambridge, Mass.) and substrate, the plates were washed and dried. IFNγ spots were enumerated under a stereoscopic microscope.

[2] = system: EBNA1-specific CTL clone B5; assay: IFNγ ELISPOT assay, CTL clone B5 with peptide-pulsed autologous CD40-B cells; details: for recognition of 20-mer overlapping peptide by clone B5: autologous CD40-B cells pulsed with 10 μg/mL peptide, FIG. 9
Method: as §1, §2

[3] = system: LMP1-specific CTL clone H7; assay: IFNγ ELISPOT assay, CTL clone H7 with peptide-pulsed A0206-293T cells; details: for recognition by H7 in ELISPOT assay: A0206-293T cells pulsed with various concentrations of synthetic peptide, FIG. 2D
Method: ELISPOT assays were performed by known methods (Kuzushima K., et al., Blood, 94:3094-3100 (1999); Kondo E., et al., J. Immunol., 169:2164-2171 (2002); and Kuzushima K., et al., Blood, 98:1872-1881 (2001)). Specifically, CD8 T cells were co-cultured with various stimulators in wells of Multiscreen-HA plates (MAHA S4510; Millipore, Billerica, Mass., USA) coated with anti-human interferon-γ (IFNγ) monoclonal antibody (Pierce Biotechnology, Philadelphia, Pa., USA).
As stimulators, HLA-A*0206-positive or -negative LCLs (1×10^5 cells/well) or HLA-A*0206-expressing HEK-293T (A0206-293T) cells (5×10^4 cells/well) transfected with plasmids using Lipofectamin 2000 (Invitrogen) were seeded into each well 48 hour before T cell addition. For peptide titration assays, several concentrations of synthetic peptides (Greiner, Frickenhausen, Germany) were pulsed to A0206-293T cells for one hour at room temperature. After probing with […] (Pierce Biotechnology) and reacting with peroxidase-labeled anti-rabbit IgG antibody (Genzyme, Cambridge, Mass., USA) for spot visualization, the plates were washed and dried. IFNγ spots were enumerated using a stereoscopic microscope.

SNK-6 cells = assay: CTL assay (51Cr release) against SNK-6; details: SNK-6 pulsed with 100 nM epitope peptide; four-hour CTL assay; FIG. 5A
Method: Next, cytotoxic activities of H7 on LCLs were explored. CTL assays were conducted according to the following procedures. Target cells were labeled with 50 μCi chromium (^51Cr) for one and a half hours at 37° C., washed, and mixed with CTLs at the indicated effector:target ratios in 96-well plates. After incubation for 4 or 16 hours at 37° C., the radioactivity in the supernatants was counted with a γ-counter. The percentage of specific ^51Cr release was calculated as follows: 100×{(experimental release)−(spontaneous release)}/{(maximum release)−([…])}.

“#24: 20-mer overlapping EBNA1 peptide (402-421)” was tested, and the “recognition of 20-mer overlapping peptide by clone C6” value [1] was “recognized”.

In the case of “#38: 20-mer overlapping EBNA1 peptide (500-519)”, the “recognition of 20-mer overlapping peptide by clone B5” value [2] is reported as “recognized”.

With “#39: 20-mer overlapping EBNA1 peptide (507-526)” the “recognition of 20-mer overlapping peptide by clone B5” value [2] was “recognized”.

In the case of “I I I I L I I F I (IIIILIIFI) [SEQ ID NO: 1]”, the “recognition by H7 in ELISPOT assay” value [3] is reported as “recognized by H7” and the “lysis of epitope peptide-pulsed SNK-6 cells by H7” value (SNK-6 cells) is reported as “efficiently lysed”.

With “I I I L I I F I (IIILIIF) [SEQ ID NO: 18, LMP1 amino acid residues 64-71]” the “recognition by H7 in ELISPOT assay” value [3] was “only the 9-mer peptide was recognized by H7”.

For VYGGSKTSL [SEQ ID NO: 22], the “recognition by clone B5 in peptide titration” value ([2]; autologous CD40-B cells, serial dilutions of peptide, FIG. 10C) was “not recognized even with much higher concentrations”.

“YLLEMLWRL [SEQ ID NO: 25, reference compound]” was tested, and the “IFNγ production by H7 with the peptide” value ([3]; data not shown) was “did not produce IFNγ”.
